{
  "source": "ChEMBL document CHEMBL6078629",
  "about": "“Targeting Protein Kinase, Membrane-Associated Tyrosine/Threonine 1 (PKMYT1) for Precision Cancer Therapy: From Discovery to Clinical Trial” (J Med Chem, 2024)",
  "key": {"[1]": {"tested_on": "MIA PaCa-2", "experiment": "Antiproliferative activity against human MIA PaCa-2 cells assessed as reduction in cell viability incubated for 48 hrs by MTT assay", "type": "functional, cell-based", "details": "MIA PaCa-2, 48 h"}, "[2]": {"experiment": "Clearance in CD-1 mouse at 2 mg/kg, iv by LC-MS/MS analysis", "type": "ADME, organism-based", "details": "in vivo"}, "[3]": {"experiment": "Half life in […] at 2 mg/kg, iv", "type": "ADME, organism-based", "details": "in vivo"}, "[4]": {"tested_on": "HCC1569", "experiment": "Antiproliferative activity against human HCC1569 cells assessed as reduction in cell viability incubated for 48 hrs by MTT assay", "type": "functional, cell-based", "details": "HCC1569, 48 h"}, "[5]": {"target": "T1, Membrane-associated tyrosine- and threonine-specific cdc2-inhibitory kinase (Homo sapiens, UniProt Q99640)", "T1 sequence (Q99640 whole entry)": "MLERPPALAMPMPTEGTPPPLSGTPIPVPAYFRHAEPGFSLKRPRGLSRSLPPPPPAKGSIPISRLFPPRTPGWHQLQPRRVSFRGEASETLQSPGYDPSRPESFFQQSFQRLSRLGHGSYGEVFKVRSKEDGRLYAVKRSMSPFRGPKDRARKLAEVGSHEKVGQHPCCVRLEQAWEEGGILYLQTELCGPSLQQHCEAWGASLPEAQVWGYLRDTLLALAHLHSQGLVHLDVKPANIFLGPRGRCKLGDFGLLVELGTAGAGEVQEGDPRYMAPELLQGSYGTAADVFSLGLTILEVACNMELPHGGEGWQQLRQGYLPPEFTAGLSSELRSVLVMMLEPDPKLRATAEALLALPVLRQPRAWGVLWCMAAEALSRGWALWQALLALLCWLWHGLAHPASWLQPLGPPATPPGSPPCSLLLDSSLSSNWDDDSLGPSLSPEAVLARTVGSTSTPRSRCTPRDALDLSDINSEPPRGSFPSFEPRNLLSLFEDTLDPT", "experiment": "Inhibition of PKMYT1 (unknown origin)"}, "[6]": {"target": "T1, Membrane-associated tyrosine- and threonine-specific cdc2-inhibitory kinase", "experiment": "Inhibition of PKMYT1 (unknown origin) extracted from insect cells by TR-FRET analysis", "type": "cell-free, Insect cell"}, "[7]": {"target": "T1, Membrane-associated tyrosine- and threonine-specific cdc2-inhibitory kinase", "experiment": "Inhibition of PKMYT1 (unknown origin) by TR-FRET analysis"}, "[8]": {"target": "T2, Wee1-like protein kinase (Homo sapiens, UniProt P30291)", "T2 sequence (P30291 whole entry)": "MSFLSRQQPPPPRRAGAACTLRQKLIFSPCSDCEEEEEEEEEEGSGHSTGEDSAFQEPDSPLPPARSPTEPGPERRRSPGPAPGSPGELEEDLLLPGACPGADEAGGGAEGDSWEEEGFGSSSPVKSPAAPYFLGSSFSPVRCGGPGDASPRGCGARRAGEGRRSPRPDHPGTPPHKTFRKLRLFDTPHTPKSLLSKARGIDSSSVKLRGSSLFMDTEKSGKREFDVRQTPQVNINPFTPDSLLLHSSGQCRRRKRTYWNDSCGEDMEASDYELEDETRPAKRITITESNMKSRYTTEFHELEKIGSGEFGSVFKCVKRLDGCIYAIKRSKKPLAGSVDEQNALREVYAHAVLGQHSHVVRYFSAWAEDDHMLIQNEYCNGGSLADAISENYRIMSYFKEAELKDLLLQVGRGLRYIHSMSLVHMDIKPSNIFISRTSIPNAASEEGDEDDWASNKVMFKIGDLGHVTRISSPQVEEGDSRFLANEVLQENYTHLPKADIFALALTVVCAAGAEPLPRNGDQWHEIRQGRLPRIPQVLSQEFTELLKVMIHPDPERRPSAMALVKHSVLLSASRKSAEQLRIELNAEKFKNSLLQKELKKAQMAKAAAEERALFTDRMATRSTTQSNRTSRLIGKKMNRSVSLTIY", "experiment": "Inhibition of WEE1 (unknown origin)"}, "[9]": {"target": "T1, Membrane-associated tyrosine- and threonine-specific cdc2-inhibitory kinase", "experiment": "Binding affinity to PKMYT1 (unknown origin) assessed as dissociation constant"}, "[10]": {"target": "T2, Wee1-like protein kinase", "experiment": "Binding affinity to WEE1 (unknown origin) assessed as dissociation constant"}},
  "data": [
    {"molecule": "Cc1cc2c(C(N)=O)c(N)n(-c3c(C)ccc(O)c3C)c2nc1C", "note": "[LUNRESERTIB]", "values": [
      {"measurement": "IC50", "setting": "[1]", "result": 9220, "unit": "nM"},
      {"measurement": "clearance", "setting": "[2]", "result": 46.5, "unit": "mL/min/kg"},
      {"measurement": "half-life", "setting": "[3]", "result": 3.32, "unit": "h"}
    ]},
    {"molecule": "Cc1ccc(O)c(C)c1-n1c2ncc(N3CCOCC3)nc2c2c(N)ncnc21", "values": [
      {"measurement": "IC50", "setting": "[4]", "result": "< 5", "unit": "nM"},
      {"measurement": "IC50", "setting": "[5]", "result": "< 100", "unit": "nM"}
    ]},
    {"molecule": "COc1ccnc2c(-c3cccc(O)c3C)c(N)c(C(N)=O)cc12", "values": [
      {"measurement": "IC50", "setting": "[5]", "result": "< 50", "unit": "nM"}
    ]},
    {"molecule": "CCOc1cc2ncc(C#N)c(Nc3ccc(F)c(Cl)c3)c2cc1NC(=O)/C=C\\CN(C)C", "values": [
      {"measurement": "IC50", "setting": "[6]", "result": 2900, "unit": "nM"}
    ]},
    {"molecule": "Cc1cc2c3c(N)ncnc3n(-c3c(C)ccc(O)c3C)c2nc1C", "values": [
      {"measurement": "IC50", "setting": "[4]", "result": "< 5", "unit": "nM"},
      {"measurement": "IC50", "setting": "[5]", "result": "< 100", "unit": "nM"}
    ]},
    {"molecule": "Cc1ccc(O)c(C)c1-c1c(N)c(C(N)=O)nc2cccnc12", "values": [
      {"measurement": "IC50", "setting": "[5]", "result": "< 50", "unit": "nM"}
    ]},
    {"molecule": "Cc1ccc(O)c(C)c1-c1cnc2[nH]c(-c3ccc(N4CCN(C)CC4)nc3C)nc2c1", "values": [
      {"measurement": "IC50", "setting": "[5]", "result": 500, "unit": "nM"}
    ]},
    {"molecule": "COc1cc2ncnc(Nc3cccc(Cl)c3)c2cc1OC", "note": "[TYRPHOSTIN AG-1478]", "values": [
      {"measurement": "IC50", "setting": "[6]", "result": 7200, "unit": "nM"}
    ]},
    {"molecule": "Cc1ccc(O)c(C)c1-n1c(N)c2c3c(c(C)ncc31)CCNC2=O", "values": [
      {"measurement": "IC50", "setting": "[7]", "result": 10, "unit": "nM"},
      {"measurement": "IC50", "setting": "[8]", "result": "> 10000", "unit": "nM"}
    ]},
    {"molecule": "CC1=NN2C(C=C1C1CC1)C(C(N)=O)=C(N)C2c1c(C)ccc(O)c1C", "note": "(stereo not given)", "values": [
      {"measurement": "IC50", "setting": "[5]", "result": "< 10", "unit": "nM"}
    ]},
    {"molecule": "Cc1cc(Nc2ncc3cc(-c4c(Cl)cccc4Cl)c(=O)n(C)c3n2)ccc1F", "values": [
      {"measurement": "IC50", "setting": "[7]", "result": 7.2, "unit": "nM"}
    ]},
    {"molecule": "Cc1c(O)cccc1-c1c(N)c(C(N)=O)nc2cccnc12", "values": [
      {"measurement": "IC50", "setting": "[5]", "result": "< 50", "unit": "nM"}
    ]},
    {"molecule": "Cc1c(O)cccc1-c1c(N)c(C(N)=O)nc2cccc(C#N)c12", "values": [
      {"measurement": "IC50", "setting": "[5]", "result": "< 50", "unit": "nM"}
    ]},
    {"molecule": "Cc1nc2c3c(c(N)n(-c4c(C)ccc(O)c4C)c3n1)C(=O)NCC2", "values": [
      {"measurement": "IC50", "setting": "[7]", "result": "≤ 10", "unit": "nM"}
    ]},
    {"molecule": "CC1=CC2C(C(N)=O)=C(N)C(c3c(C)ccc(O)c3C)N2N=C1", "note": "(stereo not given)", "values": [
      {"measurement": "IC50", "setting": "[5]", "result": "< 10", "unit": "nM"}
    ]},
    {"molecule": "Cc1ccc(O)c(C)c1-c1c(N)c(C(N)=O)nc2nccnc12", "values": [
      {"measurement": "IC50", "setting": "[5]", "result": "< 50", "unit": "nM"}
    ]},
    {"molecule": "C[C@@H](O)CC[C@H](C)Oc1ccc(Nc2ncc3cc(-c4c(Cl)cccc4Cl)c(=O)n(C)c3n2)nn1", "values": [
      {"measurement": "Kd", "setting": "[9]", "result": "≤ 10", "unit": "nM"},
      {"measurement": "Kd", "setting": "[10]", "result": "> 500", "unit": "nM"}
    ]},
    {"molecule": "Cc1ccc(O)c(C)c1-n1c(N)c2c3c(c(C)cnc31)CCNC2=O", "values": [
      {"measurement": "IC50", "setting": "[7]", "result": "≤ 10", "unit": "nM"}
    ]},
    {"molecule": "Cc1c(O)cccc1-c1c(N)c(C(N)=O)cc2nccc(C#N)c12", "values": [
      {"measurement": "IC50", "setting": "[5]", "result": "< 50", "unit": "nM"}
    ]},
    {"molecule": "COc1ccc(Nc2ncc3cc(-c4c(C)ccc(O)c4C)c(=O)n(C)c3n2)nc1", "values": [
      {"measurement": "Kd", "setting": "[9]", "result": "≤ 10", "unit": "nM"},
      {"measurement": "Kd", "setting": "[10]", "result": "> 500", "unit": "nM"}
    ]},
    {"molecule": "COc1ccnc2c(-c3c(C)ccc(O)c3C)c(N)c(C(N)=O)cc12", "values": [
      {"measurement": "IC50", "setting": "[5]", "result": "< 50", "unit": "nM"}
    ]},
    {"molecule": "Cc1ccc(O)c(C)c1-n1nc(-c2nccs2)c(C(N)=O)c1N", "values": [
      {"measurement": "IC50", "setting": "[8]", "result": 500, "unit": "nM"},
      {"measurement": "IC50", "setting": "[5]", "result": "≤ 10", "unit": "nM"}
    ]},
    {"molecule": "CSc1ncc2c(C(N)=O)c(N)n(-c3c(C)ccc(O)c3C)c2n1", "values": [
      {"measurement": "IC50", "setting": "[5]", "result": "< 100", "unit": "nM"}
    ]},
    {"molecule": "CCn1ccc(Oc2ccc(Nc3ncc4cc(-c5c(Cl)cccc5Cl)c(=O)n(C)c4n3)nc2)n1", "values": [
      {"measurement": "Kd", "setting": "[9]", "result": "≤ 10", "unit": "nM"},
      {"measurement": "Kd", "setting": "[10]", "result": "> 500", "unit": "nM"}
    ]},
    {"molecule": "CC1=CC2C(C(N)=O)=C(N)C(c3c(C)ccc(O)c3C)N2N=C1C", "note": "(stereo not given)", "values": [
      {"measurement": "IC50", "setting": "[5]", "result": "< 10", "unit": "nM"}
    ]},
    {"molecule": "Cc1cc2c(C(N)=O)c(N)n(-c3c(C)c(O)cc(F)c3C)c2nc1C", "values": [
      {"measurement": "IC50", "setting": "[1]", "result": 4320, "unit": "nM"},
      {"measurement": "IC50", "setting": "[5]", "result": "≤ 200", "unit": "nM"},
      {"measurement": "clearance", "setting": "[2]", "result": 94.4, "unit": "mL/min/kg"},
      {"measurement": "half-life", "setting": "[3]", "result": 0.56, "unit": "h"}
    ]},
    {"molecule": "Cc1ccc(-c2cc3c(Cl)c(-c4c(C)ccc(O)c4C)cnc3[nH]2)cn1", "values": [
      {"measurement": "IC50", "setting": "[5]", "result": "≤ 10", "unit": "nM"}
    ]},
    {"molecule": "Cc1ccc(O)c(C)c1-n1c(N)c2c3c(ncnc31)-c1ccccc1NC2=O", "values": [
      {"measurement": "IC50", "setting": "[4]", "result": 42, "unit": "nM"}
    ]},
    {"molecule": "Cc1ncc(-c2[nH]c3ncc(-c4c(C)ccc(O)c4C)nc3c2Cl)cn1", "values": [
      {"measurement": "IC50", "setting": "[5]", "result": "≤ 10", "unit": "nM"}
    ]},
    {"molecule": "CN(C)C(=O)NCc1cc(Nc2ncc3cc(-c4c(Cl)cccc4Cl)c(=O)n(C)c3n2)nnc1OCCN1CCS(=O)(=O)CC1", "values": [
      {"measurement": "Kd", "setting": "[9]", "result": "≤ 10", "unit": "nM"},
      {"measurement": "Kd", "setting": "[10]", "result": "> 500", "unit": "nM"}
    ]},
    {"molecule": "Cc1nc2c3c(c(N)n(-c4c(C)ccc(O)c4C)c3n1)C(=O)Nc1ccccc1-2", "values": [
      {"measurement": "IC50", "setting": "[4]", "result": 22, "unit": "nM"}
    ]},
    {"molecule": "Cc1ccc(O)c(C)c1-n1c(N)c(C(N)=O)c2c(=O)n(CF)ccc21", "values": [
      {"measurement": "IC50", "setting": "[7]", "result": 1.5, "unit": "nM"}
    ]},
    {"molecule": "Cc1ccc(O)c(C)c1C1C(N)=C(C(N)=O)C2C=C(C(C)C)C=NN21", "note": "(stereo not given)", "values": [
      {"measurement": "IC50", "setting": "[5]", "result": "< 10", "unit": "nM"}
    ]},
    {"molecule": "Cc1ccc(O)c(C)c1-c1cc2cnc(Nc3ccccn3)nc2n(C)c1=O", "values": [
      {"measurement": "Kd", "setting": "[9]", "result": "≤ 10", "unit": "nM"},
      {"measurement": "Kd", "setting": "[10]", "result": "> 500", "unit": "nM"}
    ]},
    {"molecule": "Cc1ccc(O)c(C)c1-n1c(N)c(C(N)=O)c2cc(NC(N)=O)cnc21", "values": [
      {"measurement": "IC50", "setting": "[5]", "result": "< 20", "unit": "nM"}
    ]},
    {"molecule": "Cc1ccc(O)c(C)c1-n1c(N)c2c3c(ncnc31)C=C(c1cnn(C)c1)NC2=O", "values": [
      {"measurement": "IC50", "setting": "[4]", "result": 8.6, "unit": "nM"}
    ]}
  ]
}
